Earlier results in patent publication US7887848B2, “Nutraceutical treatments for diabetic and non-diabetic wound healing” (Interhealth Nutraceuticals, Inc., priority 2006, dated 2011).

SMILES: OO [H2O2]
- beneficial effect on wounds (H2O2 at strength of 3%): no beneficial effect
- dermal wound healing (topical H2O2 (Roy et al. 2006)): facilitates dermal wound healing
